In patent US7071311B2, “Antibodies having specificity for 2′-C-allyl nucleic acids” (Sirna Therapeutics, Inc., priority 2002, dated 2006):

Columns and labels:
CA1USR mAb = assay: Competition enzyme immunoassay (EIA): nucleotide competitors against CA1USR mAb binding to 2′-deoxy-2′-C-allyl Uridine-KLH; design: species or system murine; settings: competitor nucleotides 500 to 7.8 μg/ml preincubated with CA1USR mAb; DNA-Bind plates coated with 2′-deoxy-2′-C-allyl Uridine-KLH; FIG. 2
Method: N-oxy-succinimide ester derivatized 96 well plates (DNA-Bind; Costar/Corning, Corning, N.Y.) were coated overnight at room temperature with 50 ng/well of 2′-deoxy-2′-C-allyl Uridine-KLH. After two washes with phosphate buffered saline, 0.1% Tween (PBS-T), plates were blocked for 1 h with PBS plus 1% casein (Pierce, Rockford, Ill.). Hybridoma supernatant was incubated on the plates for 1 h, after which wells were washed 4 times with PBS-T. Positive wells were detected with peroxidase-conjugated F(ab)′2 Goat anti-mouse IgG (Pel-Freez, Rogers, Ark.), and developed with TMB substrate (Kirkegaard and Perry, 2 component; Gaithersburg, Md.). Plates were read on a Molecular Dynamics plate reader (Molecular Dynamics, Sunnyvale, Calif.) at 450 nm with 595 nm correction.
DNA-Bind plates were coated overnight with 50 ng/well of 2′-deoxy-2′-C-allyl Uridine-conjugated KLH. 60 μl volumes of the purified CA1USR mAb, at a concentration of 500 ng/ml, were incubated at 37° C. for 30 min with 60 μl volumes of a series of concentrations of competitor nucleotides, from a concentration of 500 to 7.8 μg/ml. The antibody-competitor mixtures were then plated on the 2′-C-allyl-KLH coated DNA-Bind plates, and the EIA proceeded as described for the fusion screening assay.

[1] = Immunohistochemistry with CA1USR mAb on kidneys of ribozyme-treated mice (in vivo localization); settings: for CA1USR mAb immunoreactivity (staining) in kidney: 3 subcutaneous injections of 100 mg/kg, kidney sections stained with CA1USR mAb 5 μg/ml
Method: Tissues were harvested from mice injected subcutaneously with either saline or a ribozyme from 60 to 120 min after injection. Animals were perfused with normal saline, then with a solution of 3% paraformaldehyde, 0.5% gluteraldehyde prior to tissue harvest. The tissue was placed in a 30% sucrose solution at 4° C. overnight, then removed, and frozen in a Gentle Jane (Instrumedics; Hackensack, N.J.) Snap-Freezing System with Cryo-Gel Embedding Medium (Instrumedics). Five micron (μm) sections were cut and placed on slides; the slides were allowed to air dry. Prior to staining, slides were quenched in 3% hydrogen peroxide and 0.5% horse serum in PBS, then blocked with M.O.M. Mouse Ig Blocking Reagent (Vector Labs, Burlingame, Calif.) for 1 h, washed with PBS, and stained with the CA1USR MAb at 5 μg/ml in M.O.M. diluent for 30 min. After washing, slides were incubated with M.O.M. Biotinylated Anti-Mouse IgG Reagent for 10 min, washed, and incubated with Vectastain Elite ABC Reagent for 5 min, then developed in DAB chromogen (Vector Labs). Slides were rinsed, counterstained with hematoxylin (Richard-Allan Scientific, Kalamazoo, Mich.), dehydrated, and cover-slipped. Slides were viewed on a Nikon Microphot FXA microscope.

Compound | inhibition of binding of CA1USR mAb to 2′-deoxy-2′-C-allyl Uridine-KLH (CA1USR mAb) | Hematoxylin and eosin microscopy of granular structures in treated kidneys ([1]; 3 subcutaneous 100 mg/kg injections, kidney) | CA1USR mAb immunoreactivity (staining) in kidney [1]
C=CC[C@@H]1[C@H](O)[C@@H](CO)O[C@H]1n1ccc(=O)[nH]c1=O [2′-deoxy-2′-C-allyl Uridine] | able to inhibit | – | –
ANGIOZYME® ribozyme: synthetic 35-mer hammerhead ribozyme directed against VEGFR-1 mRNA with 2′-deoxy-2′-C-allyl Uridine at U4 (GAGUUGCUGAUGAGGCCGAAAGGCCGAAAGUCUG; 2'-deoxy-2'-C-allyl uridine at U4, chemistry not fully specified) | – | basophilic in character | intense 2′-deoxy-2′-C-allyl Uridine mAb immunoreactivity
unmodified HERZYME™ ribozyme: ribozyme targeted to Her2 mRNA, structure different from the hammerhead motif (GCAGUGGCCGAAAGGCGAGUGAGGUCUAGCUCA; called unmodified, meaning without 2'-C-allyl U14, full chemistry not given here) | – | – | no staining
